Data taken from patent US12138346B2, “Physiologically active substance carrier” (LEMONEX INC., priority 2017, dated 2024).

Legend:
Assay type in all cases: physicochemical
[1] = Release of doxorubicin from porous silica particles; settings: loaded on porous silica particles of Example 1-(1); PBS, 37° C., 200 rpm
Procedure: 0.5 mg of porous silica particles loaded with doxorubicin (0.1 mg) was dispersed in PBS. This solution was maintained in a dynamic condition for horizontal agitation at 37° C. and 200 rpm. The doxorubicin-loaded porous silica solution was settled by a centrifugal separator at each time point, an absorbance of the supernatant (λab=480 nm) was measured to determine an amount of released doxorubicin, and results thereof are shown in FIG. 13.

[2] = Release of irinotecan from porous silica particles in human plasma; settings: loaded on negatively charged particles of Example 2-(3)-1), 37° C., 200 rpm
Procedure: 1 mg of porous silica particles loaded with irinotecan (0.2 mg) was dispersed in 1 mL of human plasma. This solution was maintained in a dynamic condition for horizontal agitation at 37° C. and 200 rpm. The irinotecan-loaded porous silica solution was settled by a centrifugal separator at each time point, an absorbance of the supernatant (λab=255 or 278 nm) was measured to determine an amount of released irinotecan, and results thereof are shown in FIG. 14.

[3] = Release of sorafenib from porous silica particles; settings: loaded on particles of Example 1-(11)-5)(i) (hydrophobic substituent); 1×PBS, 37° C., 200 rpm
Procedure: 1 mg of porous silica particles loaded with sorafenib (0.1 mg) was dispersed in 10 mL of 1×PBS mL. This solution was maintained in a dynamic condition for horizontal agitation at 37° C. and 200 rpm. The sorafenib-loaded porous silica solution was settled by a centrifugal separator at each time point, an absorbance of the supernatant (λab=270 nm) was measured to determine an amount of released sorafenib, and results thereof are shown in FIG. 15.

[4] = Release of p53 peptides from porous silica particles; settings: loaded on particles of Example 1-(11)-5)(i), 37° C., 20 rpm
Procedure: 5 mg of particles loaded with p53 peptides was put in 5 mL of 1×PBS containing 10% FBS or 5 mL of 1×PBS, and held in a dynamic environment while rotating at 37° C. and 20 rpm. The solution was centrifuged at 8500 rpm at each time point, and a fluorescent intensity of 5(6)-carboxy fluorescein (FAM) as a fluorescent label coupled to p53 peptide in the supernatant was measured ([…]: 480 nm, Emission: 520 nm).

[5] = Release of Cy5-siRNA from porous silica particles; settings: Cy5-siRNA loaded on particles of Example 2-(1)-2)(ii); SBF (pH 7.4, 37° C.), 60 rpm
Procedure: 10 μl of the porous silica particles loaded with Cy5-siRNA was re-suspended in SBF (pH 7.4, 37° C.) and then put in a permeable membrane having a pore diameter of 20 kDa (tube in FIG. 18).
Thereafter, the permeable tube was dipped in 1.5 ml of SBF.
Before 24 hours, the released solvent was recovered at a time passing 0.5, 1, 2, 4, 8, 12 and 24 hours. Thereafter, 0.5 ml of released solvent was recovered at an interval of 24 hours for fluorescence measurement, followed by addition of SBF in equal amount.
Fluorescent intensity of Cy5-siRNA was measured at a wavelength of 670 nm (λex=647 nm) to determine a release degree of siRNA, and results thereof are shown in FIG. 19.

[6] = Release of RNase A from porous silica particles; settings: over 250 hours or more; SBF (pH 7.4) or PBS (pH 7.4), 37° C.; loaded on particles of Example 1-(9)
Procedure: 100 μg of the porous silica particles loaded with RNase A having fluorescence labeled therewith was re-suspended in 200 μl of SBF (pH 7.4) or PBS (pH 7.4).
Release of RNase A was performed at 37° C. while horizontally stirring at 60 rpm.
At a time point of 6, 12, 24, 48, 96, 144 and 240 hours, 200 μl of released solvent was recovered for fluorescence measurement, followed by addition of SBF or PBS in equal amount.

For `COc1cccc2c1C(=O)c1c(O)c3c(c(O)c1C2=O)C[C@@](O)(C(=O)CO)C[C@@H]3O[C@H]1C[C@H](N)[C@H](O)[C@H](C)O1` [doxorubicin], the “release of doxorubicin (in words)” value [1] was “relatively quickly released” and the “time over which doxorubicin was continuously released” value [1] was no less than 70 h.

For `CCc1c2c(nc3ccc(OC(=O)N4CCC(N5CCCCC5)CC4)cc13)-c1cc3c(c(=O)n1C2)COC(=O)[C@]3(O)CC` [irinotecan], the irinotecan released ([2]; after 5.5 hours) was “about 50%” and the “time over which irinotecan was continuously released” value [2] was no less than 120 h.

For `CNC(=O)c1cc(Oc2ccc(NC(=O)Nc3ccc(Cl)c(C(F)(F)F)c3)cc2)ccn1` [sorafenib], the “release of sorafenib (in words)” value [3] was “very slowly released”.

In the case of “Z-Gly-Gly-Qln-Ser-Qln-Qln-Thr-Phe-Y-Asn-Leu-Trp-Arg-Leu-Leu-X-Qln-Asn-NH2 (GGXSXXTFXNLWRLLXXN; not fully specified; FAM label; triazole staple; C-terminal amide; p53 peptide; SITE 3 1 - Xaa is Qln; 2 - Xaa is Qln; SITE 9 3 - Xaa is a non-natural amino acid introduced with an alkyne functional group wherein 4-pentynoic acid is introduced at a side chain of D-Lys; SITE 16 4 - Xaa is a non-natural amino acid introduced with an azide functional group and denotes 2-amino-5-azido-pentanoic acid; SITE 17 5 - Xaa is Qln) [FAM-labelled triazole-stapled peptide mimicking p53, antagonist of hMDM2]”, the “release of p53 peptide (in words)” value ([4]; 1×PBS containing 10% FBS) is reported as “may be released outside the particle” and the “release of p53 peptide (in words)” value ([4]; 1×PBS) is reported as “not released”.

With “siRNA: 21 base pair duplex siRNA that targets green fluorescent protein (GFP), SEQ ID NO: 1 and 2; loaded on particles of Example 2-(1)-2)(ii) (sense GGCUACGUCCAGGAGCGCACC; antisense UGCGCUCCUGGACGUAGCCUU; Cy5 label, chemistry not fully specified)” the “time over which 50% of siRNA was released” value [5] was “about 48 hours”.

B1: RNase A: RNase A (Sigma Aldrich, R6513), fluorescence labeled, loaded on particles of Example 1-(9) (protein, UniProt P61823 27-150, looked up)
Ribonuclease pancreatic: KETAAAKFERQHMDSSTSAASSSNYCNQMMKSRNLTKDRCKPVNTFVHESLADVQAVCSQKNVACKNGQTNCYQSYSTMSITDCRETGSSKYPNCAYKTTQANKHIIVACEGNPYVPVHFDASV
modifications: fluorescence labeled
In the case of B1, the “RNase A released” value [6] is reported as roughly 100%.
